Measurements as given in patent US8637237B2, “Methods, compositions, and systems for the identification of species-specific or developmental stage-specific insecticides” (The University of North Carolina at Greensboro, priority 2003, dated 2014).

Columns and labels:
Assay type in all cases: cell-based
[1] = biological target: T1, FXR and USP (Rattus norvegicus, UniProt Q62735); test: FXR with USP, reporter in CHO cells
T1 construct: expressed in transfected cells; host or cells: CHO
T1 sequence (Q62735 1-469): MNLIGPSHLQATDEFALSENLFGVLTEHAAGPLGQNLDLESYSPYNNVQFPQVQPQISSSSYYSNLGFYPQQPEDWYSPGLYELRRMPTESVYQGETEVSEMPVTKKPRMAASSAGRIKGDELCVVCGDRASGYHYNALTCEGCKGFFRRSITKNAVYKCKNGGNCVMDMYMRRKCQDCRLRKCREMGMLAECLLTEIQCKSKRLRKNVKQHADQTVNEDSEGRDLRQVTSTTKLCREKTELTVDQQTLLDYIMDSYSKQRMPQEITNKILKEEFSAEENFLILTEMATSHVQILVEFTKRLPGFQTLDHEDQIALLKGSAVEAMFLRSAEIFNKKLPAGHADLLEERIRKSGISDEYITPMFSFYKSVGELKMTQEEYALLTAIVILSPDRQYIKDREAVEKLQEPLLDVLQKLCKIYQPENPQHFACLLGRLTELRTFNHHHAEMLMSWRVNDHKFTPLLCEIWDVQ
Protocol: These experiments employed a mammalian cell culture system using Chinese hamster ovary cells (CHO) to evaluate the transcriptional function of Drosophila melanogaster EcR and USP using methods described previously (U.S. Patent Application Publication No: 2005/0049230; Henrich et al, 2003). Cells were seeded in 6-well polypropylene culture plates (Falcon) with 10^5 cells per well on the day prior to transfection. Transfection was subsequently performed using either calcium phosphate (Kitareewan et al., 1996, Mol. Biol. Cell, 7:1153-1196) or a GenePorter reagent (Gene Therapy Systems, Inc; San Diego, Calif.) following manufacturer's protocols. Each well received 1.25 μg of (EcRE)5-ΔMTV-CAT (five copies of the hsp27 EcRE inserted into an mouse mammary tumor virus (MTV) promoter upstream of the chloramphenicol acetyltransferase (CAT) gene) or (EcRE)5-ΔMTV-LUC (the same promoter attached to firefly luciferase), 1.25 μg of pCH111 (SV40 early promoter linked to the β-galactosidase gene) to normalize CAT activity, and 0.25 μg of each expression plasmid (EcR, FXR, RXR, USP) that was tested. The cells were incubated with plasmid DNA for seven hours and then washed with 1×PBS. Muristerone A (murA; Alexis Biochemicals) or 20-hydroxyecdysone (20E; Sigma) dissolved in ethanol to a concentration of 10 mM was diluted as necessary to the final assay concentration (FAC) in 2 ml of fresh incubation medium that was then applied to the cells. Similarly, JHIII (Sigma) was dissolved in dimethyl sulfoxide (DMSO) to a concentration of 80 μM and diluted into the incubation medium to its final assay concentration (20, 40, 80, 160 μM). […] A corresponding volume of ethanol and DMSO were added to control cells for all experiments. For all experiments, the cells were allowed to incubate with the medium for 24 hours before collection and cell lysates were prepared by described methods (Kitareewan et al., 1996). Both β-galactosidase and CAT reporter activity were measured based on previously used methods (Kitareewan et al, 1996). […]

[2] = biological target: T2, EcRB1/RXR (Drosophila melanogaster, UniProt P34021); test: EcRB1 isoform with RXR, reporter in CHO cells
T2 construct: The plasmid encodes a version of EcRB1 that includes 878 amino acids, and deletes the F domain; expressed in transfected cells; host or cells: CHO
Protocol: (§1) These experiments employed a mammalian cell culture system using Chinese hamster ovary cells (CHO) to evaluate the transcriptional function of Drosophila melanogaster EcR and USP using methods described previously (U.S. Patent Application Publication No: 2005/0049230; Henrich et al, 2003). Cells were seeded in 6-well polypropylene culture plates (Falcon) with 10^5 cells per well on the day prior to transfection. Transfection was subsequently performed using either calcium phosphate (Kitareewan et al., 1996, Mol. Biol. Cell, 7:1153-1196) or a GenePorter reagent (Gene Therapy Systems, Inc; San Diego, Calif.) following manufacturer's protocols. Each well received 1.25 μg of (EcRE)5-ΔMTV-CAT (five copies of the hsp27 EcRE inserted into an mouse mammary tumor virus (MTV) promoter upstream of the chloramphenicol acetyltransferase (CAT) gene) or (EcRE)5-ΔMTV-LUC (the same promoter attached to firefly luciferase), 1.25 μg of pCH111 (SV40 early promoter linked to the β-galactosidase gene) to normalize CAT activity, and 0.25 μg of each expression plasmid (EcR, FXR, RXR, USP) that was tested. […] Both β-galactosidase and CAT reporter activity were measured based on previously used methods (Kitareewan et al, 1996). […]
(§2) Transcriptional activity, measured as ^14C-chloramphenicol counts (for measuring CAT activity) or relative luciferase activity (RLU) was quantified for each cell lysate. […]

[3] = biological target: T3, VP16dEcR/USP (Drosophila melanogaster, UniProt P34021); test: VP16dEcR with USP (VP16CfUSP), reporter in CHO cells
T3 construct: expressed in transfected cells; host or cells: CHO
Protocol: as §1, §2

[4] = biological target: T4, GGEc (Drosophila melanogaster, UniProt P34021); test: GGEc chimera (GR amino terminus and DBD, EcR LBD) with RXR in CHO cells; settings: 20 μM juvocimene; 0.2 μM muristerone A
T4 construct: were replaced by EcR LBD amino acids (EcR amino acids 329 to 878); expressed in transfected cells; host or cells: CHO
T4 sequence (P34021 329-878): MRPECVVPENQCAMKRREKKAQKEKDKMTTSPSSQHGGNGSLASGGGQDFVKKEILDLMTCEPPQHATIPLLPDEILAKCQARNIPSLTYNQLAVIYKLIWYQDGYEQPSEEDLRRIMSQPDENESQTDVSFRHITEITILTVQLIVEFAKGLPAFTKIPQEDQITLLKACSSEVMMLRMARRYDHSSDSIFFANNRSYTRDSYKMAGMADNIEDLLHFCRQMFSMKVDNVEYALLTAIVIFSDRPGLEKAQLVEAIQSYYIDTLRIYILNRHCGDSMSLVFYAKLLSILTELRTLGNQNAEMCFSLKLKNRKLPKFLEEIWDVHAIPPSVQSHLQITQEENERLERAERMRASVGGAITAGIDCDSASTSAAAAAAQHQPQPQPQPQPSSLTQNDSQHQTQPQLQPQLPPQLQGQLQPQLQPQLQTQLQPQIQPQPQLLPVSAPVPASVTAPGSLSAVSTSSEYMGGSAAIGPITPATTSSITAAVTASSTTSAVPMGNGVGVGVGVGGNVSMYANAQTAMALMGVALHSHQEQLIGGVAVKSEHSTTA
Source text: For these experiments, the luciferase reporter construct was used. To obviate influences from other transcription factors, results were normalized using a reporter plasmid from which CAT expression is driven by a minimal promoter consisting of dimerized GREs linked upstream of a 13 base pair TATA box DNA element derived from the adenovirus E1B gene.
In this experiment, GGEc and RXR were transfected into CHO cells with either a CAT or a luciferase reporter plasmid containing 1.5 kilobase pairs of the glucocorticoid-inducible mouse mammary tumor virus (MTV) promoter.
In these experiments, CHO cells were transfected with a GGEc-expressing plasmid, a mouse RXRα expression plasmid, and an adenovirus E1b TATA-(GRE)2-CAT reporter plasmid. The GGEc plasmid was eliminated from DNA mixtures added to cells transfected in parallel. CAT activities were measured from lysates of cells from triplicate wells treated with ethanol vehicle, juvocimene (20 μM), muristerone A (0.2 μM), or both.
In these experiments, CHO cells were transfected with DNAs as described above but ubiquinone-2 (10 μM) was substituted for juvocimene.

T2 sequence (P34021 whole entry, canonical isoform): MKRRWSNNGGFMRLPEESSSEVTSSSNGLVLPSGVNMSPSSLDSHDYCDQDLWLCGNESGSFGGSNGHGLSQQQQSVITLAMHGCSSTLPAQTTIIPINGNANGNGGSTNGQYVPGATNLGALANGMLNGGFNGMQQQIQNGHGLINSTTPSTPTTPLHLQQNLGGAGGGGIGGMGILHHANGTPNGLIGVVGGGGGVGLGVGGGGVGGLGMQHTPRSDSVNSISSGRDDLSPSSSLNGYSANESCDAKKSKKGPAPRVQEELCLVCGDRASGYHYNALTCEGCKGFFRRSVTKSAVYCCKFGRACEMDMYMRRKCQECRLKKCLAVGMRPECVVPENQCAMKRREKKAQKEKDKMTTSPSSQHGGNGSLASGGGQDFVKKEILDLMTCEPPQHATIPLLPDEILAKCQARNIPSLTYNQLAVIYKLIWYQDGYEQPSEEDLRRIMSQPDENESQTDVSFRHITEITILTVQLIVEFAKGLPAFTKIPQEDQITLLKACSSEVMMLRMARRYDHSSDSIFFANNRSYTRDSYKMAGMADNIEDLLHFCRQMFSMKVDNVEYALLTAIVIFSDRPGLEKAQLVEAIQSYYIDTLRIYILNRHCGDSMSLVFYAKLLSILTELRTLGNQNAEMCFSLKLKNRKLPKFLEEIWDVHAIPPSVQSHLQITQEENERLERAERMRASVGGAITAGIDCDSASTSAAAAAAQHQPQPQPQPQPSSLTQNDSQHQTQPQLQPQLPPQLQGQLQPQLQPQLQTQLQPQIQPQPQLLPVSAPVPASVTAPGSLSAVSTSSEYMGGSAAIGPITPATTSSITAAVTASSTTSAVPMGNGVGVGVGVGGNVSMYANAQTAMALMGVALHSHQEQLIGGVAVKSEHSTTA
T3 sequence (P34021 252-878 limits assumed): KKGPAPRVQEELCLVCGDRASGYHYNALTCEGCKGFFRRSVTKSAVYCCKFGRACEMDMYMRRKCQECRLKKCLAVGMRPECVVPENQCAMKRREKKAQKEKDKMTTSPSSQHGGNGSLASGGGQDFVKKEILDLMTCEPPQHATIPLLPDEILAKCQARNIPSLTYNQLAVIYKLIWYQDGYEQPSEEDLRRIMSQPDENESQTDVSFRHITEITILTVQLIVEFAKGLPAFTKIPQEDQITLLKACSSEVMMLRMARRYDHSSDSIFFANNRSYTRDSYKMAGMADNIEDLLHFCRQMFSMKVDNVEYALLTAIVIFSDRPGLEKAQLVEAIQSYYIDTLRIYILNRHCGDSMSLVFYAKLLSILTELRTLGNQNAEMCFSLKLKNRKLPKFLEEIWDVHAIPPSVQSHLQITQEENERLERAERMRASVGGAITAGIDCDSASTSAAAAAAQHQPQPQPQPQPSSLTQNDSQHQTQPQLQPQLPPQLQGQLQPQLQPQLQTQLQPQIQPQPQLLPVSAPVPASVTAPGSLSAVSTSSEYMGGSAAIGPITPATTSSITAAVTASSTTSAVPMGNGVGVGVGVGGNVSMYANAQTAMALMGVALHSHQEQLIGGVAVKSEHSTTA
T3 sequence (O76202 212-462 partner limits assumed): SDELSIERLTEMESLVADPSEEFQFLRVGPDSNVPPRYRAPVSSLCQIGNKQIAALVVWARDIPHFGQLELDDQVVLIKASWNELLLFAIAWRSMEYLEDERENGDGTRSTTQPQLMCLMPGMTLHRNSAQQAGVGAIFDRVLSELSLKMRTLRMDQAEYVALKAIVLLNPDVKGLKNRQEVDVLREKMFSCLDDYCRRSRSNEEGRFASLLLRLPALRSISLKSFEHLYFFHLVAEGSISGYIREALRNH

CC(C)(O)CC[C@@H](O)[C@](C)(O)[C@H]1CC[C@@]2(O)C3=CC(=O)[C@@H]4C[C@@H](O)[C@@H](O)C[C@]4(C)[C@H]3CC[C@]12C [20E, 20-hydroxyecdysone]
elevation of FXR-mediated activity by ecdysteroid added with JHIII [1]: no elevation

COC(=O)/C=C(\C)CC/C=C(\C)CC[C@H]1OC1(C)C [JHIII, juvenile hormone III]
MurA + JHIII (JHIII potentiation) ([2]; 0.1 μM murA + 80 μM JHIII): + ((+) indicates observed potentiation that exceeds 2-fold above the levels observed with ecdysteroid alone)
MurA + JHIII (JHIII potentiation) ([3]; 0.1 μM murA + 80 μM JHIII): + ((+) indicates observed potentiation that exceeds 2-fold above the levels observed with ecdysteroid alone)
response of FXR and USP to JHIII ([1]; CHO cells): low level response

CC(C)CC[C@@H](O)[C@](C)(O)[C@H]1CC[C@@]2(O)C3=CC(=O)[C@]4(O)C[C@@H](O)[C@@H](O)C[C@]4(C)[C@H]3[C@H](O)C[C@]12C [murA, muristerone A]
MurA (inducibility) ([2]; 0.1 μM murA): + ((+) designates a change in transcriptional level that exceeds 2.5-fold)
MurA (inducibility) ([3]; 0.1 μM murA): + ((+) designates a change in transcriptional level that exceeds 2.5-fold)
elevation of FXR-mediated activity by ecdysteroid added with JHIII [1]: no elevation

juvocimene
GGEc activity increase over MUR [4]: 7 times
